According to patent US10034738B2, “Cardiac tissue constructs and methods of fabrication thereof” (THE GOVERNING COUNCIL OF THE UNIVERSITY OF TORONTO, priority 2012, dated 2018):
Entries after “also recorded” stand apart in the source; their conditions may differ.

Columns and labels:
cardiac microwire [1] = assay: Optical mapping of transmembrane action potentials of cardiac microwire (voltage-sensitive dye); type: cell-based, human; settings: relative to the baseline
Description: (§1) Using drugs of known effects, the cardiac microwire was perturbed and optically mapped their response (transmembrane AP and intracellular calcium transient) using voltage- and calcium-sensitive dyes, respectively.
For optical measurements, microtissues were stained with […] of Di-4-ANEPPS (Invitrogen, Carlsbad Calif.) voltage-sensitive dye for 20 minutes, followed by 3 washouts with fresh warm Tyrode's solution (Sigma-Aldrich) adjusted to pH 7.4. The temperature was kept constant at 37° C. using a block incubator. Dye fluorescence was recorded using a microscope mapping system (Ultima, Scimedia, Tokyo Japan). The system included a CMOS camera with a 1 cm sensor (100×100 pixel) attached to a custom-built microscope using PLAN APO objective and condensing lenses (Leica Microsystems GmbH, Wetzlar Germany), giving a magnification of 1.5×. The spatial resolution was 63 μm/pixel. The fluorescence was excited using a Xenon light source (Moritek Corp. Japan) and a 530 nm green filter (Semrock, Rochester N.Y.) and the emission signal was long pass filtered using a 610 nm red filter. Tissue constructs were point stimulated at 1000-ms cycle length using a bipolar electrode made with 2 fine silver wires (AWG#32) inserted in a large stainless steel needle mounted on a micromanipulator. Spontaneous tissue beating was also recorded, in addition to responses to frequency sweep from 1 to 5 Hz. Local activation times were measured at the peak of dF/dT for each pixel. Activation maps were constructed for a selected beat.
Conduction velocity was calculated at each location using activation times of 9 neighbouring sites. Conduction velocity values from all sites were used to calculate the average conduction velocity across the construct surface; minimum and maximum values were also noted. Phase contrast images of microtissue surfaces were taken prior to optical mapping, to correlate tissue architecture geometry with conduction velocity. Concentrations of drugs used applied as indicated. […]

cardiac microwire [2] = assay: Optical mapping of intracellular calcium transients of cardiac microwire (calcium-sensitive dye); type: cell-based, human
Description: as §1
Conduction velocity was calculated at each location using activation times of 9 neighbouring sites. Conduction velocity values from all sites were used to calculate the average conduction velocity across the construct surface; minimum and maximum values were also noted. Phase contrast images of microtissue surfaces were taken prior to optical mapping, to correlate tissue architecture geometry with conduction velocity. Concentrations of drugs used applied as indicated. Stock solutions were prepared as recommended by vendors: Epinephrine at 1:1000 (Hospira), Lidocaine at 1:1000 (Hospira), and Verapamil at 1:1000 (Sandoz).

[3] = test system: cardiac tissue constructs; settings: relative to no-drug control, 15 minutes of incubation at 37 degrees Celsius, increasing concentrations
Description: In the present example, microwells with ramped support structures having retaining structures provided thereon, as described above, were seeded at 0.1×10^6 cells per tissue in 2.0 mg/mL Collagen 1. Tissues remodeled over two weeks along with contractile force as measured using the microcantilevers in the system. After two weeks, tissues were introduced with drugs in 100% DMSO vehicle. Final concentrations applied to tissues were ensured to be less than 0.01% DMSO to ensure non-toxic effects. Concentrations were mixed separately in a 96 well plate and applied to the tissues. Measurements were taken after 15 minutes of incubation with the drug at 37 degrees Celsius.
Videos of approximately 10 seconds were recorded and analyzed offline using ImageJ for each condition. […] Contractile force assays were conducted after the contractile force was plateaued to ensure no changes in contractile force due to tissue remodeling.

[4] = test system: cardiac tissue constructs; assay: Preliminary growth factor screen, excitation threshold (ET) of cardiac tissue constructs; type: cell-based; settings: compared to the control condition
Description: Tissue function was established by measuring excitation threshold (ET), the minimum voltage required to pace the tissue simultaneously, and maximum capture rate (MCR), the maximum stimulation rate at which the construct can be induced to beat simultaneously, at 7 days after cell seeding. Tissue constructs or cardiomyocyte aggregates were individually placed between a pair of carbon electrodes in stimulation chambers (autoclaved before use). ET (V/cm) was measured by stimulating the tissue with square pulses of 2 ms pulse width at a frequency of 1 or 2 Hz and gradually increasing the output voltage of the stimulator until >80% of the tissue was beating synchronously with the stimulator output. MCR was measured by setting the output voltage at 12 V, and increasing frequency until >80% of the tissue was no longer synchronously beating with the driving signal. […]
A preliminary screen was also performed in order to determine the maturation effect of growth factors. […] The challenge with higher level functional readouts with in vitro models is that further analyses need to be done to determine the mode of action. In order to determine the mechanism of IGF1 and HRG, other functional parameters as well as molecular readouts over a time course will be investigated.

In the case of `CCN(CC)CC(=O)Nc1c(C)cccc1C` [Lidocaine], the AP activation rate (cardiac microwire [1]; increasing concentrations of Lidocaine, 2 μg/mL and 4 μg/mL) was “reduced and nearly abolished activation; also recorded: decreased the activation rate”.
For `CNC[C@H](O)c1ccc(O)c(O)c1` [Epinephrine], the AP activation rate (cardiac microwire [1]; Epinephrine 0.1 μg/mL) was “increased the AP activation rate relative to the baseline”, the AP activation rate (cardiac microwire [1]; Epinephrine 0.1 μg/mL, listed as epinephrine) was “increased activation rate” and the “rate of calcium transients” value (cardiac microwire [2]; Epinephrine 0.1 μg/mL supplemented after Verapamil 0.25 μg/mL) was “increased the rate of calcium transients”.
With `CC(C)(C)c1ccc(C(O)CCCN2CCC(C(O)(c3ccccc3)c3ccccc3)CC2)cc1` (stereo not shown) [Terfenadine] the relative contractile force [3] was “reduce the contractile force (relative to control) with increasing concentrations”.
“IGF1: one of seven growth factors in a preliminary maturation screen” was tested, and the “excitation threshold (ET)” value [4] was “reduced ET compared to the control condition”.
With `COc1ccc(CCN(C)CCCC(C#N)(c2ccc(OC)c(OC)c2)C(C)C)cc1OC` (stereo not shown) [Verapamil] the “amplitude of calcium waves” value (cardiac microwire [2]; Verapamil 0.25 μg/mL, relative to the baseline) was “reduced the amplitude of calcium waves”.
